Measured values: patent publication US8796463B2 (priority 2009, dated 2014)
Values joined by “and” are separate entries in the source; they are usually repeats but may differ in a detail not shown here. Equal entries are not always repeated.

Assays:
[1] = log P by HPLC on reversed phase columns (EEC directive 79/831 Annex V.A8); type: physicochemical; conditions: for chromatographic logP: reversed phase HPLC column, pH 2.7, formic acid eluent, reported in preparation example, read-out: log P(HCOOH)
Description: Measurement of log P values was performed according EEC directive 79/831 Annex V.A8 by HPLC (High Performance Liquid Chromatography) on reversed phase columns with the following method:
measurement of LC-MS was done at pH 2.7 with 0.1% formic acid in water and with acetonitrile (contains 0.1% formic acid) as eluent with a linear gradient from 10% acetonitrle to 95% acetonitrile.
Calibration was done with not branched alkan2-ones (with 3 to 16 carbon atoms) with known log P-values (measurement of log P values using retention times with linear interpolation between successive alkanones). lambda-maX-values were determined using UV-spectra from 200 nm to 400 nm and the peak values of the chromatographic signals.

Phytophthora infestans = type: in vivo; conditions: tomato, preventive spray, 100 ppm of active ingredient, evaluated 7 days after inoculation
Plasmopara viticola = test: Plasmopara test (grapevines) / preventive; type: in vivo; conditions: preventive spray, 10 ppm of active ingredient, evaluated 6 days after inoculation
Description: Plasmopara Test (Grapevines)/Preventive
To produce a suitable preparation of active compound, 1 part by weight of active compound is mixed with the stated amounts of solvent and emulsifier, and the concentrate is diluted with water to the desired concentration.
To test for preventive activity, young plants are sprayed with the preparation of active compound at the stated rate of application. After the spray coating has dried on, the plants are inoculated with an aqueous spore suspension of Plasmopara viticola and then remain for 1 day in an incubation cabinet at approximately 20° C. and a relative atmospheric humidity of 100%. The plant is subsequently placed for 4 days in a greenhouse at approximately 21° C. and a relative atmospheric humidity of approximately 90%. The plants are then misted and placed for 1 day in an incubation cabinet.
The test is evaluated 6 days after the inoculation. 0% means an efficacy which corresponds to that of the untreated control, while an efficacy of 100% means that no disease is observed.

Pythium ultimum = test: Pythium test (cotton) / seed treatment; type: in vivo; conditions: 10 g/dt seed of active ingredient, emerged seedlings after 7 days
Description: Pythium Test (Cotton)/Seed Treatment
The test is performed under greenhouse conditions.
Cotton seeds, treated with the active compound or compound combinations, solved in N-methyl-2-pyrrolidon and diluted with water to the desired dosages, were sown in 6*6 cm pots containing 4 cm of a 1:1 mix of steamed field soil and sand.
Perlite was incubated with mycelium fragments of Pythium ultimum. 1 ml of infected perlite was scattered between the treated cotton seeds. Seeds were then covered by light expanded clay aggregate. Pots were incubated in the greenhouse 7 days at 20° C. and 80% relative humidity.
Assessment consisted of counting of emerged seedlings. 0% means an efficacy which corresponds to that of the control, while an efficacy of 100% means that all seedlings have emerged.

Cn1nnnc1C(=NOCc1cccc(NC(=O)C2Cc3ccccc3O2)n1)c1ccccc1 (stereo not drawn) [Example 41, N-{6-[({[(1-methyl-1H-tetrazol-5-yl)(phenyl)methylene]amino}oxy)methyl]pyridin-2-yl}-2,3-dihydro-1-benzofuran-2-carboxamide]
chromatographic logP [1]: 3.67
Efficacy % (Phytophthora infestans): 89%
Efficacy % (Plasmopara viticola): 97% and 91%
Efficacy % (Pythium ultimum): 92%

Cn1nnnc1C(=NOCc1csc(NC(=O)C2CCc3ccccc3O2)n1)c1ccccc1 (stereo not drawn) [Example 10, N-{4-[({[(1-methyl-1H-tetrazol-5-yl)(phenyl)methylene]amino}oxy)methyl]-1,3-thiazol-2-yl}chromane-2-carboxamide]
chromatographic logP [1]: 3.78
Efficacy % (Phytophthora infestans): 100%
Efficacy % (Plasmopara viticola): 100%
Efficacy % (Pythium ultimum): 86%

Cn1nnnc1C(=NOCc1csc(NC(=O)C2COc3ccccc3O2)n1)c1ccccc1 (stereo not drawn) [Example 11]
logp ([1]; pH 2.7, 0.1% formic acid in water / acetonitrile gradient): 3.46
Efficacy % (Phytophthora infestans): 95%
Efficacy % (Plasmopara viticola): 98%
Efficacy % (Pythium ultimum): 77%
